This note sets out measurements from US20240043410A1, “SULPHAMOYL UREA DERIVATIVES CONTAINING ALKYL-OXACYCLOALKYL MOIETY AND USES THEREOF” (NodThera Limited, priority 2020, published 2024).

Data set [1] concerns IL-1β release upon NLRP3 activation in peripheral blood mononuclear cells (PBMC). Kind of data set: PBMC IC50 Determination Assay. In kind it is cell-based. The settings on record: Homo sapiens; LPS-primed PBMC stimulated with ATP (5 mM) or nigericin (10 μM); IL-1β by ELISA (Protocol A) or HTRF (Protocol B); salts tested. Here is the method: PBMC IC50 Determination Assay. The compounds of the present disclosure were tested for their inhibitory activity against IL-1β release upon NLRP3 activation in peripheral blood mononuclear cells (PBMC).
Protocol A. PBMC were isolated from buffy coats by density gradient centrifugation on Histopaque-1077 (Sigma, cat no. 10771). Isolated cells were seeded into the wells of a 96-well plate and incubated for 3 h with lipopolysaccharide (LPS). Following medium exchange, the compounds of the present disclosure were added (a single compound per well) and the cells were incubated for 30 min. Next, the cells were stimulated either with ATP (5 mM) or nigericin (10 μM) for 1 h and the cell culture media from the wells were collected for further analysis. The release of IL1-β into the media was determined by a quantitative detection of IL-1β in the media using an IL-1β enzyme-linked immunosorbent assay (ELISA) Ready-SET-Go!, eBioscience cat. No. 88-7261-88. Briefly, in a first step, high affinity binding plates (Corning, Costar 9018 or NUNC Maxisorp Cat No. 44-2404) were coated overnight at 4° C. with specific capture antibody included in the kit (anti-human IL-1β ref. 14-7018-68). Subsequently, plates were blocked with blocking buffer for 1 h at room temperature (rt) and after washing with a buffer (PBS with 0.05% Tween-20) incubated with protein standard and culture media. After 2 h of incubation at rt, plates were washed and incubated with biotinylated detection antibody included in the kit (anti-human IL-1β Biotin ref. 33-7110-68) for 1 h at rt. Plates were washed and incubated with HRP-streptavidin for 30 min at rt and washed again. The signal was developed after addition of 3,3′,5,5′-tetramethylbenzidine-peroxidase (TMB) until colour appeared and the reaction was stopped by 2 M H2SO4. A microplate spectrophotometer (BioTek) was used to detect signals with 450 nm. The detection range of IL-1β 3 ELISA was 2-150 ng/mL.
Protocol B. PBMC were isolated from buffy coats by density gradient centrifugation on Histopaque-1077 (Sigma, cat no. 10771). Isolated cells were seeded into the wells (280,000 cells/well) of a 96-well plate and incubated for 3 h with lipopolysaccharide (LPS, 1 μg/mL diluted 1000× from a 1 mg/mL stock solution). The compounds of the present disclosure were added (a single compound per well) and the cells were incubated for 30 min. Next, the cells were stimulated with ATP (5 mM final concentration diluted 20× from a 100 mM stock solution) for 1 h and the cell culture media from the wells were collected for further analysis. The release of IL-1β into the media was determined by quantitative detection of IL-1 in the media using HTRF®, CisBio cat. No. 62HIL1BPEH. Briefly, cell culture supernatant were dispensed directly into the assay plate containing antibodies labelled with the HTRF® donor and acceptor. A microplate spectrophotometer (BMG) was used to detect signals at 655 nm and 620 nm. The detection range of IL-1β HTRF® was […].
A general note: An ELISA detects its analyte on a solid surface through an enzyme-linked reagent.

In another data set the target is T1, P-glycoprotein (P-gp) (Homo sapiens, UniProt P08183).
T1 construct: expressed in transfected cells; host or cells: MDCK-MDR1 cells
Kind of data set: P-gp MDCK-MDR1 permeability assay. The data set is classed as in vitro ADME. The settings on record: efflux ratio, MDCK-MDR1 cells. Here is the method:
P-gp MDCK-MDR1 Studies. The compounds of the present disclosure were tested in a MDCK-MDR1 permeability assay to assess whether they are actively transported out of cells by the efflux protein, P-glycoprotein (P-gp).
Protocol. MDCK-MDR1 cells were used between passage numbers 6-30. Cells were seeded onto Millipore Multiscreen Transwell plates at 3.4×10^5 cells/cm^2. The cells were cultured in DMEM and media was changed on Day 3. On Day 4 the P-gp inhibition study was performed. Cell culture and assay incubations were carried out at 37° C. in an atmosphere of 5% CO2 with a relative humidity of 95%. On the day of the assay, the monolayers were prepared by rinsing both apical and basolateral surfaces twice with warmed (37° C.) transport buffer (Hanks Balanced Salt Solution [HBSS] containing 25 mM HEPES and 4.45 mM glucose, pH 7.4). Cells were then incubated with transport buffer containing test compound or positive control inhibitor (elacridar) in both apical and basolateral compartments for 30 minutes at 37° C. The dosing solutions were prepared by diluting digoxin and test compound where applicable to give a final digoxin concentration of 5 μM (final DMSO concentration of 1% v/v). The fluorescent integrity marker lucifer yellow was prepared in receiver solutions in vehicle or test compound-containing transport buffer. After pre-incubation, the transport buffer was removed from both apical and basolateral compartments and replaced with the appropriate dosing or receiver solution.
For assessment of B-A permeability, transport buffer was removed from the basolateral companion plate and replaced with dosing solution. Fresh transport buffer containing lucifer yellow and test compound where applicable (final DMSO concentration 1% v/v) was added to the apical compartment insert, which was then placed into the companion plate. After a 90-minute incubation the apical compartment inserts and the companion plates were separated and compartments sampled for analysis. Seven concentrations of test compound (up to 100 μM) were assessed in addition to a vehicle control (0 μM). A triplicate determination of each concentration was performed. The positive control inhibitor was evaluated in parallel. [^3H]-digoxin was quantified by liquid scintillation counting to give disintegrations per minute (dpm). The integrity of the monolayer throughout the experiment was checked by monitoring lucifer yellow permeation using fluorimetric analysis.
The efflux ratio (ER) values of compounds of the present disclosure are shown in Table B below (“****” means <3; “***” 3≥ and <10; “**” means ≥10 and <30; “*” means ≥30).

The nature of the next data set: PAMPA permeability assay. To be noted: 10 μM donor, PBS, 4 hours at room temperature, lecithin/dodecane membrane. The data set is classed as in vitro ADME. Here is the method:
PAMPA Studies. The compounds of the present disclosure were tested in a PAMPA permeability assay to assess passive transcellular permeation.
Protocol. 0.2 mM working solution was prepared by diluting 10 mM stock solution with DMSO. 10 μM donor solution (5% DMSO) was prepared by diluting 20 μL of working solution with 380 μL PBS. 150 μL of 10 μM donor solutions to each well of the donor plate, whose PVDF membrane was precoated with 5 μL of 1% lecithin/dodecane mixture. Duplicates were prepared. 300 μL of PBS was added to each well of the PTFE acceptor plate. The donor plate and acceptor plate were combined and incubated for 4 hours at room temperature with shaking at 300 rpm. Preparation of TO sample: 20 μL donor solution was transferred to new well followed by the addition of 250 μL PBS (DF: 13.5), 130 μL ACN (containing internal standard) as TO sample. Preparation of acceptor sample: The plate was removed from incubator. 270 μL solution was transferred from each acceptor well and mixed with 130 μL ACN (containing internal standard) as acceptor sample. Preparation of donor sample: 20 μL solution was transferred from each donor well and mixed with 250 μL PBS (DF: 13.5), 130 μL ACN (containing internal standard) as donor sample. Acceptor samples and donor samples were all analysed by LC-MS/MS.
The measured PAMPA permeability values of compounds of the present disclosure are shown in Table B below (“$$$$” means >10 nm/“$$$” means ≥3 and <10 nm/s; “$$” means ≥1 and <3 nm/s; “$” means <1 nm/s).
(The PAMPA barrier holds no transporters, so it reflects passive diffusion.)

Data set [2] is described as follows: Thermodynamic (equilibrium) solubility assay. The data set is classed as physicochemical. The settings on record: aqueous buffer, thermodynamic from solid; 50 mM pH 7.4 phosphate buffer, 24 hours at room temperature. Here is the method:
Thermodynamic Solubility Studies. The compounds of the present disclosure were tested in an equilibrium solubility assay.
An appropriate amount of test and control compounds were weighed into lower chambers of Whatman Mini-UniPrep vials. To these were added 50 mM pH 7.4 phosphate buffer (450 μL) to get a super-saturated suspension. The samples were vortexed for at least 2 minutes. The Whatman Mini-UniPrep vials were shaken on a shaker for 24 hours at room temperature at 800 rpm. The vials were centrifuged for 20 minutes (eg. 4000 rpm). Samples were compressed to prepare filtrates for injection into HPLC system and the concentration calculated with a standard curve. […] As shown in the table, compounds of the present disclosure may display improved properties (e.g., over the compounds in the prior art), such as enhanced potency, solubility, membrane permeability and transporter efflux.

T1 sequence (P08183 whole entry): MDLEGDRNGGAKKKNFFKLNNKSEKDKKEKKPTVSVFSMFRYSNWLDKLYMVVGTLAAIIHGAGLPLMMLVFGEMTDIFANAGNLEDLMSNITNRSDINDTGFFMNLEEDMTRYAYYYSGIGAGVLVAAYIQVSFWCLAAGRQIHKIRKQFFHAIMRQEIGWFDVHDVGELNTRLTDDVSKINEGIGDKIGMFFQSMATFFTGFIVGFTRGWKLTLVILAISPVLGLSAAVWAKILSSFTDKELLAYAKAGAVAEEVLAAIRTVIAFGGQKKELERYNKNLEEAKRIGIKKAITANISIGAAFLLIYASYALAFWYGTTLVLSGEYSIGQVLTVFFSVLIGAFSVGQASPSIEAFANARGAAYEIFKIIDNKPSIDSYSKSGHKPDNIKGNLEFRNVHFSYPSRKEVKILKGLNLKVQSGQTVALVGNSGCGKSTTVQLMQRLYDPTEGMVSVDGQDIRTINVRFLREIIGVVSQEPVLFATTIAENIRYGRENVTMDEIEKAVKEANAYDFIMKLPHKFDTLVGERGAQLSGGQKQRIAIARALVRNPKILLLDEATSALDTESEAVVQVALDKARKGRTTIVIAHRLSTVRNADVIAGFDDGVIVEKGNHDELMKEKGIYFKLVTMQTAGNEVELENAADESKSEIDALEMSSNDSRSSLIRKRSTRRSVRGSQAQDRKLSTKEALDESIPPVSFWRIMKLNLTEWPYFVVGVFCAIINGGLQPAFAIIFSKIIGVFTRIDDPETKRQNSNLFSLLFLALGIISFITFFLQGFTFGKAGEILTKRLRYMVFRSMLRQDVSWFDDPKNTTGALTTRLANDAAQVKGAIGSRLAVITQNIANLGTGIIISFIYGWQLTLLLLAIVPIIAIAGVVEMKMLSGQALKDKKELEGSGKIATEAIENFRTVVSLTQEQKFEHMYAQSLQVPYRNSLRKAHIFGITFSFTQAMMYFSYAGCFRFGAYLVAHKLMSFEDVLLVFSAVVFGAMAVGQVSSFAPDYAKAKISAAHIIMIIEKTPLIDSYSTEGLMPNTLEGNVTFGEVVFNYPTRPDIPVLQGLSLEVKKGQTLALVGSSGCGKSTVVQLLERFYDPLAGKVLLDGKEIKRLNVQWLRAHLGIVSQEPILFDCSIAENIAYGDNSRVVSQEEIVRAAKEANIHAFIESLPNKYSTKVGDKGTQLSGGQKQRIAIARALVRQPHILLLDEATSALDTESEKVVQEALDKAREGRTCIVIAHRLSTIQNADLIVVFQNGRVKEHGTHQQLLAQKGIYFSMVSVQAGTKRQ

Regarding `Cn1cc(N(C[C@H]2CCCO2)S(=O)(=O)NC(=O)Nc2c3c(cc4c2CC4)CC3)cn1` [Compound 3B, Sodium [(1-methyl-1H-pyrazol-4-yl)({[(2R)-oxolan-2-yl]methyl})sulfamoyl]-({tricyclo[6.2.0.0^3,6]deca-1,3(6),7-trien-2-yl}carbamoyl)azanide], the IC50 in data set [1] is less than 100 nM. For the same compound, the “MDCK-MDR1 ER” value at P-glycoprotein (P-gp) is “* (“*” means ≥30)”.
Turning to `Cn1cc(N(CC2CCCCO2)S(=O)(=O)NC(=O)Nc2c3c(cc4c2CC4)CC3)cn1` (stereo in doubt) [Compound 7A, Sodium [(1-methyl-1H-pyrazol-4-yl)({[(2S)-oxan-2-yl]methyl})sulfamoyl]-({tricyclo[6.2.0.0^3,6]deca-1,3(6),7-trien-2-yl}carbamoyl)azanide], the IC50 in data set [1] is less than 100 nM. For the same compound, in “PAMPA permeability assay”, the “PAMPA Pe” value was “$$$ (“$$$” means ≥3 and <10 nm/s)”. Also, the solubility (thermodynamic) at 24 h in data set [2] was 3000 to 10000 µg/mL. Besides, the “MDCK-MDR1 ER” value at P-glycoprotein (P-gp) is “** (“**” means ≥10 and <30)”.
Turning to `Cn1cc(N(CC2CCCCO2)S(=O)(=O)NC(=O)Nc2c3c(cc4c2CC4)CC3)cn1` (stereo in doubt) [Compound 7B, Sodium [(1-methyl-1H-pyrazol-4-yl)({[(2R)-oxan-2-yl]methyl})sulfamoyl]-({tricyclo[6.2.0.0^3,6]deca-1,3(6),7-trien-2-yl}carbamoyl)azanide)], the IC50 in data set [1] is less than 100 nM. For the same compound, the “PAMPA Pe” value in “PAMPA permeability assay” was “$$$ (“$$$” means ≥3 and <10 nm/s)”. In addition, the thermodynamic solubility at 24 h in data set [2] fell in the range of 3000 to 10000 µg/mL. Moreover, at P-glycoprotein (P-gp), the “MDCK-MDR1 ER” value is “* (“*” means ≥30)”.
As for `Cn1cc(N(C[C@@H]2CCCO2)S(=O)(=O)NC(=O)Nc2c3c(cc4c2CC4)CC3)cn1` [Compound 3A, Sodium [(1-methyl-1H-pyrazol-4-yl)({[(2S)-oxolan-2-yl]methyl})sulfamoyl]-({tricyclo[6.2.0.0^3,6]deca-1,3(6),7-trien-2-yl}carbamoyl)azanide], the IC50 in data set [1] was less than 100 nM. Moreover, the “MDCK-MDR1 ER” value at P-glycoprotein (P-gp) is “* (“*” means ≥30)”.

For orientation: IC50 means the concentration needed to halve the response being measured. As usually defined, the solubility (thermodynamic) is the concentration in solution at equilibrium with solid.
